The values that follow come from patent US4888287A, “Rapid differentiation of fungi from bacteria using polyene antibiotics” (Eastman Kodak Company, priority 1986, dated 1989).

The test system of one assay is A. flavus. Description: Inhibition of RIND XXXV reduction by A. flavus (mold), microtitration plate, fluorescence (Example 2, Table III). The settings on record: Aspergillus flavus, 0.5 h, 37° C., 30 min, read-out: Corrected Percent Inhibition. The class given is cell-based, Aspergillus flavus (ATCC 20047). How it is done: (§1) gram-negative microorganism Escherichia coli (ATCC 25922), gram-positive microorganism Staphylococcus aureus (ATCC 25923), and Candida albicans yeast cells (ATCC 14053), brain heart infusion broth (BHI) and Sabaroud's dextrose broth (SAB) from Difco Laboratories (Detroit, Michigan, U.S.A.), and Aspergillus flavus (ATCC 20047), a mold from American Type Culture Collection (Rockville, Maryland, U.S.A.).
(§2) E. coli and S. aureus were grown overnight in BHI broth at 37° C. C. albicans and A. flavus were grown overnight at 25° C. in SAB broth with agitation. The cells were harvested by centrifugation, washed and resuspended in 0.05 molar N-2-hydroxyethylpiperazine-N'-2-ethanesulfonic acid (HEPES) buffer (pH 7.8).
(§3) Dispersions containing RIND compounds were prepared by dissolving, for example, RIND VII from Table I above in N,N-dimethylformamide (DMF) at 16 mg compound per ml of solvent. An aliquot (250 μl) of the resulting solution was added to 500 μl of TRITON X-100 surfactant. This mixture was then added dropwise with stirring to 25 ml of 0.05 molar HEPES buffer. A solution containing a water-compatible RIND compound (for example, RIND XXXV) was prepared by dissolving the compound in N,N-dimethylformamide which had been acidified with 0.1% sulfuric acid (16 mg RIND compound per ml of solvent).
(§4) A composition was prepared from the following components: 100 μl RIND XXXV solution (16 mg RIND compound per ml of acidified N,N-dimethylformamide), 200 μl glucose solution (10% in water), 200 μl trimethyl-1,4-benzoquinone ETA solution (1.5 mg/ml methanol) and 10 ml HEPES buffer.
(§5) Test solutions were prepared using the following reagents: 50 μl HEPES buffer, 50 μl filipin polyene antibiotic (12.5 mg/ml dimethylsulfoxide)(serial dilutions of buffer and antibiotic solutions were performed to obtain various antibiotic concentrations), 50 μl of the appropriate cell suspensions, that is, E. coli (about 10^8 cells/ml), S. aureus (about 10^8 cells/ml), C. albicans (about 10^7 cells/ml) and A. flavus, and […] of the RIND composition described above.
(§6) Control solutions were prepared as described in Example 1. Relative fluorescence was measured using a Dynatech MICROFLUOR Reader (Dynatech Laboratories, Alexandria, Virginia) modified to read at excitation 540 nm and emission 620 nm, at zero time and after incubation at 37° C. for 30 minutes. The change in relative fluorescence was then determined as the difference of the two values.

Assay [1] concerns C. albicans. Description: Inhibition of RIND XXXV reduction by C. albicans, microtitration plate, fluorescence (Example 2, Table III). It is filed as cell-based, Candida albicans (ATCC 14053). Conditions: Candida albicans, 0.5 h, C. albicans (yeast), 37° C., 30 min, read-out: Corrected Percent Inhibition. How it is done:
as §1, §2, §3, §4, §5, §6

The subject of assay [2] is E. coli. In words: Inhibition of RIND XXXV reduction by E. coli, dry analytical element (Example 4, Table V). The class given is cell-based, Escherichia coli (ATCC 25922). The settings on record: E. coli (gram -), 37° C., 30 min. How it is done: as §1, §2
Dispersions containing RIND compounds were prepared by dissolving, for example, RIND VII from Table I above in N,N-dimethylformamide (DMF) at 16 mg compound per ml of solvent. An aliquot (250 μl) of the resulting solution was added to 500 μl of TRITON X-100 surfactant. […]
A standard paper punch was used to cut circular elements (about 0.6 cm in diameter) from the dried strips. […] Buffer solution was applied to separate elements for background readings.
Relative fluorescence (excitation at 540 nm and emission at 620 nm) was measured using a Dynatech MICROFLUOR reader at zero time and after 30 minutes incubation at 37° C., and the change in relative fluorescence was determined.

In assay [3] the test system is C. albicans. In words: Inhibition of MTT tetrazolium salt reduction by C. albicans, microtitration plate (Example 3, Table IV). It is filed as cell-based, Candida albicans (ATCC 14053). The settings on record: Candida albicans, 0.5 h, C. albicans (yeast), 540 nm, 37° C., 30 min, read-out: Corrected Percent Inhibition. How it is done:
as §1, §2
(§7) The differentiations of yeast and mold from bacteria were carried out in microtitration plates. The cell suspensions used were like those described in Example 2. The reducible compound used was 3-(4,5-dimethyl-2-thiazolyl)-2,5-diphenyl-2H-tetrazolium bromide (MTT). A composition containing MTT was prepared with the following components: 200 μl MTT solution (5 mg/ml methanol), 200 μl glucose solution (10% glucose in water), 200 μl trimethyl-1,4-benzoquinone ETA and 12 ml of HEPES buffer (0.05 molar, pH 7.8).
as §5, with “components:” for “reagents:”, “suspension, i.e.” for “suspensions, that is,”, “MTT” for “RIND”, “noted” for “described”, “above. Cell Controls contained all reagents except the antibiotic. Background was measured with buffer. Solution Controls contained all reagents except cells.” for “above.”
(§8) Optical density measurements were made at 540 nm using a commercially available spectrophotometer, and the change in optical density (ΔOD) was determined after 30 minutes at 37° C. […] It is apparent that the concentration effective for differentiation of yeast is different than for mold. However, it is well within the skill of a worker in the art to determine the appropriate concentration for a given test.

Assay [4] concerns C. albicans. Description: Inhibition of RIND IX reduction by C. albicans (yeast) in solution (Example 1, Table II). The class given is cell-based, Candida albicans (ATCC 14053). Conditions: Method 2 (antibiotic preincubated with cells 37° C., 30 min), 635 nm.
Experimental: The following materials were used in this example: stock solutions of RIND IX compound dispersion prepared as described above, glucose (10% in water), trimethyl-1,4-benzoquinone ETA (1.5 mg/ml methanol), and the antibiotics (25 mg/ml in dimethyl sulfoxide, except that filipin was 12.5 mg/ml of solvent). Bacteria and yeast were grown as described above. The approximate final cell concentrations in the assay mixture were 4.2×10^8 cells/ml of E. coli, 7.1×10^8 cells/ml of S. aureus, and 7×10^5 of C. albicans.
Test solutions were prepared by adding in order: 1.2 ml of HEPES buffer, 50 μl glucose solution, 1.5 ml of RIND IX dispersion, 100 μl of antibiotic solution, 100 μl of cell suspension and 25 μl of ETA solution. Cell control solutions contained all reagents except antibiotics. Background controls consisted of both buffer and solution controls. The buffer control contained all reagents except antibiotics and cells. The solution control contained all reagents except cells. Optical density readings (OD) were measured at 635 nm at 0 minutes and after incubation at 37° C. for 30 minutes for test and Control solutions, and the change in density (ΔOD) was determined. […] The corrected percent inhibition is calculated by dividing the difference between the ΔOD obtained from the Control without antibiotic and the ΔOD of the test solution, by ΔOD of the Control without antibiotic. All readings were corrected by subtracting readings of the appropriate background control.
Solutions containing 2.9 ml HEPES, 50 μl of the antibiotic solution, and 100 μl cell solution were incubated at 37° C. for 30 minutes, centrifuged for 10 minutes and decanted. The resulting pellet was then treated with 1.4 ml HEPES, 50 μl glucose solution, 1.5 ml RIND IX dispersion and 25 μl ETA solution, mixed well and the optical densities recorded as described above in Method 1. The corrected percent inhibition data was calculated as described in Method 1 above.
Assay [5] has as its system E. coli. In words: Inhibition of MTT tetrazolium salt reduction by E. coli, microtitration plate (Example 3, Table IV). The class given is cell-based, Escherichia coli (ATCC 25922). The settings on record: Escherichia coli, 0.5 h, E. coli (gram -), 540 nm, 37° C., 30 min, read-out: Corrected Percent Inhibition. How it is done: as §1, §2, §7
as §5, with “components:” for “reagents:”, “suspension, i.e.” for “suspensions, that is,”, “MTT” for “RIND”, “noted” for “described”, “above. Cell Controls contained all reagents except the antibiotic. Background was measured with buffer. Solution Controls contained all reagents except cells.” for “above.”
as §8

Usually inhibition stands for the percentage by which the read-out fell short of the control.

Turning to `CCCCC[C@@H](O)[C@H]1C(=O)O[C@H](C)[C@@H](O)/C=C/C=C/C=C/C=C/C=C(\C)[C@@H](O)C[C@H](O)C[C@H](O)C[C@H](O)C[C@H](O)C[C@H](O)C[C@@H]1O` [Filipin, filipin], the inhibition at 260 µg/mL in the assay on A. flavus (0.26 mg/ml) was found to be 31.9%; with C. albicans [1] (0.26 mg/ml) it was 56.8%; in the assay on C. albicans [3] (0.26 mg/ml) it was 10.3%; in the assay with E. coli [5] (0.26 mg/ml), 0%. The inhibition at 520 µg/mL turned out to be 42.5% in the assay on A. flavus (0.52 mg/ml), 71% in the assay with C. albicans [1] (0.52 mg/ml), 50% in the assay with C. albicans [3] (0.52 mg/ml) and 0% in the assay on E. coli [5] (0.52 mg/ml). For the same compound, the inhibition at 1040 µg/mL was determined as 49.8% in the assay with A. flavus (1.04 mg/ml), 80.7% with C. albicans [1] (1.04 mg/ml), 60.3% with C. albicans [3] (1.04 mg/ml) and 0% in the assay with E. coli [5] (1.04 mg/ml). Further, the inhibition at 2080 µg/mL turned out to be 64.9% in the assay on A. flavus (2.08 mg/ml), 86.8% in the assay with C. albicans [1] (2.08 mg/ml), 100% in the assay on C. albicans [3] (2.08 mg/ml) and 0% in the assay with E. coli [5] (2.08 mg/ml). For the same compound, the “Corrected Percent Inhibition” value with E. coli [2] was determined as 18%. Further, in the assay on C. albicans [4], the “Corrected % Inhibition” value is 97.5%.
